Data reported in paper PMC7700651 (International Journal of Molecular Sciences, 2020).
Bridge positions count the residues as written; N and C are the ends. Peptide text beside a SMILES is read from it.

T1: BTLA/HVEM complex (Homo sapiens, UniProt Q92956)
T1 construct: expressed in transfected cells; host or cells: Jurkat JE6.1 NFκB-eGFP reporter cells (HVEM); T cell stimulator cells from mouse thymoma BW5147 (BTLA)
T1 sequence (Q92956 39-283): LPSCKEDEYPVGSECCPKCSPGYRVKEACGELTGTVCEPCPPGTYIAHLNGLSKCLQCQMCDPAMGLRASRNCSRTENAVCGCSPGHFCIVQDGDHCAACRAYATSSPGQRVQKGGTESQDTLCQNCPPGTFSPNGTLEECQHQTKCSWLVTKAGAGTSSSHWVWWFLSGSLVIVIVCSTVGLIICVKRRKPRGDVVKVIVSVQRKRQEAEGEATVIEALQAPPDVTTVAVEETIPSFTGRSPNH

T2: BTLA/HVEM complex (Homo sapiens, UniProt Q92956)
T2 construct: His; purchased ACROBiosystems (HVEM-His); Novoprotein (BTLA-Fc) #HVM-H52E9; #CD06
T2 sequence (Q92956 39-202 limits assumed): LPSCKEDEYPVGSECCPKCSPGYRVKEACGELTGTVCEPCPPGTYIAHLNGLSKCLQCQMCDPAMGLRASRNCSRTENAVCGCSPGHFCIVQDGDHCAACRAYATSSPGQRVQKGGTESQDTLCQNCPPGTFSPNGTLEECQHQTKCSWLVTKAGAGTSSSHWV

T3: recombinant human HVEM with His tag (human, UniProt Q92956 39-202)
T3 construct: also called HVEM-His; herpesvirus entry mediator; source: bought: ACROBiosystems (#HVM-H52E9)
T3 sequence (looked up): T2 sequence (Q92956 39-202 limits assumed)


Columns and labels:
[1] = molecular target: T4, HVEM protein (Homo sapiens, UniProt Q92956); assay: Affinity test: peptide on microcolumn with immobilized HVEM, fractions analysed by mass spectrometry; format: binding; conditions: for Interaction with HVEM protein in affinity test: microcolumn with immobilized HVEM, presence in elution fraction by mass spectrometry
T4 construct: His; purchased ACROBiosystems #HVM-H52E9
Method: Affinity tests were performed to confirm the interaction of the designed peptides with HVEM protein. The peptide was added to a microcolumn with immobilized HVEM protein, and binding was checked using mass spectrometry, according to a procedure described earlier.
The affinity tests were performed according to the procedure described in our previous paper. The MS spectrums were registered using a MALDI-TOF/TOF autoflex maX (Bruker, Billerica, MA, USA) mass spectrometer.

[2] = molecular target: T1, BTLA/HVEM complex; assay: Cell-based reporter assay (HVEM-expressing Jurkat NFκB-eGFP reporter cells stimulated with TCS-BTLA); conditions: 1.5 mg/mL; reporter cells pre-incubated 30 min with peptide, then TCS-BTLA 24 h; flow cytometry; three experiments in duplicate
Source text: To assess the capacities of the gD peptides to interfere with the BTLA/HVEM complex in a functional in vitro setting, reporter cells (NFκB-eGFP), which are based on the human Jurkat T cell line JE6.1 were transduced to express HVEM [34]. These reporter cells can be stimulated by T cell stimulator cells (TCS) expressing a membrane-bound anti-CD3 antibody fragment, which is able to engage the TCR-CD3 complex and thereby activate the NFκB pathway. In addition, to control TCS, TCS expressing the corresponding co-stimulatory ligand BTLA were generated in order to trigger HVEM in trans on the reporter cells (Figure S4). To validate the HVEM reporter system, control, and HVEM - expressing reporter cells were stimulated with control TCS and TCS expressing BTLA (Figure S4). Engagement of BTLA with HVEM induced high expression of NFκB-eGFP. To determine the inhibitory properties of the gD peptides, HVEM reporter cells were pre-incubated with the indicated peptides at different concentrations, followed by stimulation with control TCS or TCS-BTLA (Figure 4).
Figure 4 The inhibitory function of the peptides in a reporter cell-based assay. HVEM reporter cells were stimulated with TCS expressing BTLA in the absence or presence of the indicated gD peptides at concentrations of 1.5 mg/mL, 750 μg/mL, and 375 μg/mL. Reporter gene expression (NFκB-eGFP), upon stimulation with TCS-BTLA, was normalized to reporter activation after stimulation with TCS control in the presence of the respective peptides. BTLA/HVEM stimulation in the absence of peptides was set to 100% activation. Results are shown for three experiments performed independently in duplicate. Data are depicted as mean with SEM. * indicates statistically significant differences compared to full activation (100%), two-way ANOVA followed by Bonferroni’s post hoc test; p < 0.0001.
For functional assays, HVEM-expressing reporter cells (5 × 10^4 cells/well) were pre-incubated with different concentrations of gD peptides for 30 min in a 96 flat bottom plate. Control TCS or TCS expressing BTLA (2 × 10^4 cells/well) were subsequently added for 24 h at 37 °C with 5% CO2. After 24 h, the cells were harvested and stained with an mCD45.2 antibody to exclude TCS from the reporter cells. Expression of the reporter gene (eGFP) was then measured via flow cytometry. The mean and standard deviation of the gMFI of the viable population of reporter cells (mCD45.2+ stimulator cells were excluded) were determined. Each experiment was performed in duplicate.

[3] = molecular target: T2, BTLA/HVEM complex; assay: ELISA, inhibition of BTLA/HVEM complex formation; format: biochemical; conditions: peptides 1.5 to 0.375 mg/mL, 24 h, 37 °C; HVEM-His coated; BTLA-Fc 5 μg/mL
Method: ELISA tests were performed to check the inhibitory properties of the peptides. HVEM protein was first immobilized in microplates and then the peptides were added in three different concentrations and incubated with HVEM. Unbound peptides were then removed and BTLA-Fc protein was added. For the detection of BTLA-Fc protein, a goat anti-human IgG (H+L)-HRP conjugate and TMB (3,3’,5,5’-tetramethylbenzidine) were applied. As a positive control, anti-HVEM antibodies, which inhibit the BTLA/HVEM complex formation by about 50%, were used (Figure 3A and Figure S3). […] The inhibitory properties of the peptides were also studied for the complex HVEM/LIGHT, using the same procedure and conditions as described above, but with the application of LIGHT protein instead of BTLA protein. A significant increase in inhibitory properties was observed only for the anti-HVEM antibodies (positive control), which inhibited the HVEM/LIGHT binding by about 75% (Figure 3B and Figure S3). None of the tested peptides inhibited the formation of the LIGHT/HVEM complex (Figure 3B).
A 96-well Immunograde plate (Brand, Wertheim, Germany) was coated with 5 μg/mL of recombinant HVEM-His protein in PBS (100 μL/well) and incubated overnight at 4 °C. The plate was washed 5 times (200 μL/well) with PBS-T (5 mM Na2HPO4, 150 mM NaCl with the addition of 0.3 M NaCl and 0.05% Tween-20, pH 7.4) and blocked with 5% BSA in PBS-T for 2 h at 37 °C. The peptides were then titrated in triplicate from 1.5 to 0.375 mg/mL (100 µL/well) in PBS-T and incubated for 24 h at 37 °C. Maximum binding of HVEM to BTLA/LIGHT was determined by adding PBS-T to negative control wells, whereas maximum inhibition was measured by adding anti-HVEM (1 µg/well). The plate was then washed and incubated with recombinant BTLA-Fc/LIGHT-Fc protein at 5 μg/mL in PBS-T (100 μL/well) for 2 h at 37 °C. Goat anti-human IgG (H+L)-HRP conjugate (Bio-Rad, Hercules, CA, USA) antibody was then added (1:3000; 100 μL/well) and incubated for 1 h at 37 °C. Finally, BTLA-Fc/LIGHT-Fc was detected by the addition of 100 μL/well of TMB (Thermo Scientific, Waltham, MA, USA). Absorbance was measured using Infinite M200 Pro (Tecan Life Sciences, Männedorf, Switzerland) at 650 nm and 492 nm. […] ELISA tests were performed at least in triplicate. The data are presented as mean ± standard deviation (SD). The results were analyzed by one-way analysis of variance (ANOVA) followed by Dunnett’s post-hoc test using GraphPad Prism (San Diego, CA, USA).

[4] = Stability of peptides in cell culture medium (RPMI1640 with 10% FCS), RP-HPLC; format: in vitro ADME; conditions: 37 °C, at least triplicate
Source text: A low stability in solution, which could be connected with many different processes such as aggregation, conformation changes, and chemical degradation, including deamidation and isomerization, oxidation, hydrolysis, and racemization, is a major concern for the therapeutic application of peptides. For the presented study, the stability of the peptides in PBS buffer and medium (solutions used in tests described above) was studied and determined using RP-HPLC. The analysis was done by comparing the area under the peaks in a control sample (peptide dissolved in water, time = 0) and a sample after incubation in PBS or medium.
200 µL of medium (RPMI1640 with 10% FCS)/human plasma was added to 50 µL of each peptide (1 mg/mL). The samples were incubated for different times (0, 2, 3, 6, and 24 h) at 37 °C. They were then precipitated by the addition 1 mL of absolute ethanol, incubated on ice for 15 min and centrifuged at 18,000 rpm for 20 min at 4 °C. The supernatants were collected and dried under vacuum. The samples were then resuspended in 120 µL of 0.1% TFA and analyzed by RP-HPLC under the same conditions as described for the determination of the stability of the peptides in PBS. All stability tests were performed at least in triplicate. Blood was obtained from donor volunteers and centrifuged in lithium/heparin tubes. EDTA was used as an anticoagulant.

[5] = molecular target: T3, recombinant human HVEM with His tag; assay: affinity purification with mass spectrometry; HVEM protein immobilised in a microcolumn; peptide added; supernatant, last wash and elution fractions analysed by MALDI-TOF/TOF MS; procedure of ref. 33; conditions: both partners purified

| Molecule | Interaction with HVEM protein in affinity test [1] | Capacity to interfere with BTLA/HVEM complex (reduction of NFκB-eGFP activation), in words [2] | Inhibitory properties for BTLA/HVEM complex formation (ELISA), in words [3] | Stability in medium (and PBS), in words ([4]; up to 24 h) | Elution [M+H]+ (signal in elution fraction = binding to immobilized HVEM) ([1]; MALDI-TOF MS of elution fraction, binding confirmed if m/z signal present in elution and none in last wash, '-' = no signal) | metabolised at 24 h, 0.2 mg/mL ([4]; cell culture medium (RPMI1640 with 10% FCS), 200 µL + 50 µL peptide 1 mg/mL, 24 h, ethanol precipitation, read-out: Degradation in medium after 24 h) [%] | binding result [5] |
| --- | --- | --- | --- | --- | --- | --- | --- |
| Ac-DQLTDPP-NH2 [gD(26-32)] | do not interact with HVEM protein | weak blocking effect | do not inhibit BTLA/HVEM complex formation | – | – | – | – |
| Ac-ASLKMADPN-NH2 [gD(7-15)] | do not interact with HVEM protein | no effect | do not inhibit BTLA/HVEM complex formation | almost completely degraded | – | – | – |
| CSCC[C@@H]1NC(=O)[C@H](CC(=O)O)NC(=O)[C@H](CC(C)C)NC(=O)[C@H](CC(C)C)NC(=O)[C@H](CC(=O)O)NC(=O)[C@H](C(C)C)NC(=O)[C@H](C)NC(=O)[C@H](C(C)C)NC(=O)CNC(=O)[C@H](CC(=O)O)NC(=O)[C@@H](NC(=O)CNC(=O)[C@H](CCCCN)NC(=O)[C@H](CO)NC(=O)[C@H](C)NC(=O)[C@H](CCCNC(=N)N)NC(=O)[C@H](CC(C)C)NC(=O)[C@@H]2CCCN2C(=O)[C@H](CCCNC(=N)N)NC(=O)[C@H](CC(=O)O)NC(C)=O)CSSC[C@@H](C(=O)N[C@@H](CC(C)C)C(=O)N[C@H](C(=O)N[C@@H](CC(C)C)C(=O)N[C@@H](CC(=O)O)C(=O)N[C@@H](Cc2ccccc2)C(=O)N[C@@H](C)C(=O)N[C@@H](CCCNC(=N)N)C(N)=O)C(C)C)NC(=O)[C@@H]2CCCN2C(=O)[C@H](CC(N)=O)NC(=O)[C@H](CCCCN)NC(=O)[C@H](CCC(N)=O)NC(=O)[C@H](CCCNC(=N)N)NC(=O)[C@@H]2CCCN2C(=O)[C@H](Cc2ccc(O)cc2)NC(=O)[C@@H]2CCCN2C1=O [gD(1-36)(K10C-T29C)^SCR, reference compound] (Ac-DRPLRASKGCDGVAVDLLDMPYPRQKNPCLVLDFAR-NH2; disulfide 10-29) | – | weak blocking effect | no effect | – | – | – | – |
| CSCC[C@H](NC(=O)[C@H](CCCCN)NC(=O)[C@H](CC(C)C)NC(=O)[C@H](CO)NC(=O)[C@H](C)NC(=O)[C@H](CC(=O)O)NC(=O)[C@@H](NC(=O)[C@H](CC(C)C)NC(=O)[C@H](C)NC(=O)[C@H](Cc1ccc(O)cc1)NC(=O)[C@H](CCCCN)NC(C)=O)C(C)C)C(=O)N[C@@H](C)C(=O)N[C@@H](CC(=O)O)C(=O)N1CCC[C@H]1C(=O)N[C@@H](CC(N)=O)C(=O)N[C@@H](CCCNC(=N)N)C(=O)N[C@@H](Cc1ccccc1)C(=O)N[C@@H](CCCNC(=N)N)C(=O)NCC(=O)N[C@@H](CCCCN)C(=O)N[C@@H](CC(=O)O)C(=O)N[C@@H](CC(C)C)C(=O)N1CCC[C@H]1C(=O)N[C@H](C(=O)N[C@@H](CC(C)C)C(=O)N[C@@H](CC(=O)O)C(=O)N[C@@H](CCC(N)=O)C(=O)N[C@@H](CC(C)C)C(=O)N[C@H](C(=O)N[C@@H](CC(=O)O)C(=O)N1CCC[C@H]1C(=O)N1CCC[C@H]1C(=O)NCC(=O)N[C@H](C(=O)N[C@@H](CCCNC(=N)N)C(=O)N[C@@H](CCCNC(=N)N)C(N)=O)C(C)C)[C@@H](C)O)C(C)C [gD(1-36)] | binds to HVEM | weak blocking effect | did not prevent protein interaction | – | 4094.88 | ~50 | – |
| Ac-KYALVDASLKMADPNRFRGKDLPVLDQLTDPPGVRR-NH2 (source: synthetic peptide) [gD(1-36)] | – | – | – | – | – | – | binds |
